Results reported in PMC5929560, “Deciphering the binding behavior of flavonoids to the cyclin dependent kinase 6/cyclin D complex” (PLoS ONE, 2018).

Target: CDK6 (Homo sapiens, UniProt Q00534)
Assay: Filter-binding kinase assay with [γ-32P]ATP and histone H1
Assay type: biochemical
Conditions: 25 μM ATP, 20 min at 30°C, triplicate
Procedure: To quantify the inhibitory activities of flavonoids on CDK6, the filter-binding assay was performed in 96-well filter plates. The total volume for each well was 0.1mL containing a final concentration of 20mM Tris-HCl (pH 7.4), 50mM NaCl, 1mM dithiothreitol, 10mM MgCl2, 25μM ATP (containing 0.25μCi of [γ-^32P]ATP), 0.1μg of CDK6, 10μg of histone H1, and appropriate dilutions of inhibitor. The reaction was initiated by the addition of [γ-^32P]ATP, and then incubated for 20min at 30°C. Samples were applied to P81 phosphocellulose papers strips (Whatman), and the strips were washed in phosphoric acid solution. The radioactivity was measured by liquid scintillation spectrometry. IC50 values were calculated from the dose-response curves. All experiments were carried out in triplicate.

Sequence of CDK6 (Homo sapiens, UniProt Q00534) (Q00534 whole entry): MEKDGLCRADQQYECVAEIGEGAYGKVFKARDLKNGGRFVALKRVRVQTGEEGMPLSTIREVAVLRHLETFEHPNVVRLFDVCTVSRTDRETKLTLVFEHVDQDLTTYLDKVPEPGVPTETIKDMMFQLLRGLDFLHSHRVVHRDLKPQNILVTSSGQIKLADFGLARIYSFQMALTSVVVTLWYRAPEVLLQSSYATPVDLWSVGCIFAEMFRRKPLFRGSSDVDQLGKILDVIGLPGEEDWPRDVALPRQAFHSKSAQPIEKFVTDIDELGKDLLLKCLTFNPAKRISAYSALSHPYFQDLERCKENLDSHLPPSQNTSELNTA
Sequence of CDK6 (Homo sapiens, UniProt Q00534) (P30281 whole entry partner): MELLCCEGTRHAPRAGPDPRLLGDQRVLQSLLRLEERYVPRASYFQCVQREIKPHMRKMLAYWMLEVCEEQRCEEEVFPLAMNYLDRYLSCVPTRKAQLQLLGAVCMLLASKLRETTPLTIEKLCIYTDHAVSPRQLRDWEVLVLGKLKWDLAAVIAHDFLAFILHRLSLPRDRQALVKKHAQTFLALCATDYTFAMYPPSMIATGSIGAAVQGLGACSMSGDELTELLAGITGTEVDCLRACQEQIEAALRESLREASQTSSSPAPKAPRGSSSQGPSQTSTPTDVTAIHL

Compound	IC50
O=c1c(O)c(-c2ccc(O)c(O)c2)oc2cc(O)cc(O)c12 [M06, Quercetin]	26.3 ± 1.9 µM
O=c1cc(-c2ccc(O)c(O)c2)oc2cc(O)ccc12 [M15, 3’, 4’, 7-trihydroxyflavone]	23.3 ± 1.5 µM
O=c1c(O)c(-c2ccccc2)oc2cc(O)cc(O)c12 [M04, Galangin]	52 ± 2.8 µM
O=c1c(O)c(-c2ccc(O)cc2)oc2cc(O)cc(O)c12 [M07, Kaempferol]	19.8 ± 1.6 µM
O=c1c(-c2ccc(O)cc2)coc2cc(O)cc(O)c12 [M05, Genistein]	38 ± 2.1 µM
O=c1cc(-c2ccccc2)oc2cc(O)cc(O)c12 [M01, Chrysin]	4.5 ± 0.4 µM

Test system: CDK6
Assay: not given
Conditions: cited from earlier work

Compound	IC50
O=c1c(O)c(-c2ccc(O)c(O)c2)oc2cc(O)cc(O)c12 [M06, Quercetin]	26 µM
O=c1c(O)c(-c2ccc(O)c(O)c2)oc2cc(O)ccc12 [M03, Fisetin]	0.85 µM
